{"source": "ChEMBL document CHEMBL5678804", "about": "(Cancer Cell, 2011)", "key": {"Crk-like protein": {"target": "Crk-like protein (Mus musculus, UniProt P47941, T315I)", "sequence (P47941 whole entry, looked up, stated change not applied)": "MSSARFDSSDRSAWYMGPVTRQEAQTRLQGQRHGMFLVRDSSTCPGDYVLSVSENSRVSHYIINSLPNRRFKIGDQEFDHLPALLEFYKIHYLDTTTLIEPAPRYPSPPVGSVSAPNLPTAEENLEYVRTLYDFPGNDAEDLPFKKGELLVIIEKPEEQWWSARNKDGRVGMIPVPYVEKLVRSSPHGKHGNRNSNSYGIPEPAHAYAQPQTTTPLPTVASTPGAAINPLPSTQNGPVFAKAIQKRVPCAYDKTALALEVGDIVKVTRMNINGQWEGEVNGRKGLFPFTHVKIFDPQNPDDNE", "assay": "Inhibition of CrkL in mouse BaF3 cells harbouring BCR-ABL1 T315I mutant measured after 6 hrs by immunoblotting analysis", "assay_type": "cell-based"}, "BaF3 [1]": {"system": "BaF3", "assay": "cells", "details": "Mus musculus, BaF3, 72 h"}, "BaF3 [2]": {"system": "BaF3", "assay": "cells", "details": "Mus musculus, BaF3, 72 h", "remark": "listed apart in the source"}, "BaF3 [3]": {"system": "BaF3", "assay": "cells", "details": "Mus musculus, BaF3, 72 h", "remark": "listed apart in the source"}, "BaF3 [4]": {"system": "BaF3", "assay": "cells", "details": "Mus musculus, BaF3, 72 h", "remark": "listed apart in the source"}, "BaF3 [5]": {"system": "BaF3", "assay": "cells", "details": "Mus musculus, BaF3, 72 h", "remark": "listed apart in the source"}, "BaF3 [6]": {"system": "BaF3", "assay": "cells", "details": "Mus musculus, BaF3, 72 h", "remark": "listed apart in the source"}, "BaF3 [7]": {"system": "BaF3", "assay": "cells", "details": "Mus musculus, BaF3, 72 h", "remark": "listed apart in the source"}, "BaF3 [8]": {"system": "BaF3", "assay": "cells", "details": "Mus musculus, BaF3, 72 h", "remark": "listed apart in the source"}, "BaF3 [9]": {"system": "BaF3", "assay": "cells", "details": "Mus musculus, BaF3, 72 h", "remark": "listed apart in the source"}, "BaF3 [10]": {"system": "BaF3", "assay": "cells", "details": "Mus musculus, BaF3, 72 h", "remark": "listed apart in the source"}, "BaF3 [11]": {"system": "BaF3", "assay": "cells", "details": "Mus musculus, BaF3, 72 h", "remark": "listed apart in the source"}, "BaF3 [12]": {"system": "BaF3", "assay": "cells", "details": "Mus musculus, BaF3, 72 h", "remark": "listed apart in the source"}, "BaF3 [13]": {"system": "BaF3", "assay": "cells", "details": "Mus musculus, BaF3, 72 h", "remark": "listed apart in the source"}, "BaF3 [14]": {"system": "BaF3", "assay": "cells", "details": "Mus musculus, BaF3, 72 h", "remark": "listed apart in the source"}, "BaF3 [15]": {"system": "BaF3", "assay": "cells", "details": "Mus musculus, BaF3, 72 h", "remark": "listed apart in the source"}, "BaF3 [16]": {"system": "BaF3", "assay": "cells", "details": "Mus musculus, BaF3, 72 h", "remark": "listed apart in the source"}, "[17]": {"target": "Tyrosine-protein kinase ABL1 (Homo sapiens, UniProt P00519)", "assay": "Inhibition of human N-terminal his tagged native ABL1 (229 to 499 residues) expressed in Sf9 cells using ABLtide as substrate preincubated for 2 hrs followed by ATP addition and measured every 2 mins for […] by spectrophotometric analysis"}, "[18]": {"target": "Tyrosine-protein kinase ABL1 (Homo sapiens, UniProt P00519, T315I)", "assay": "Inhibition of human ABL1 T315I mutant (229 to 499 residues) using ABLtide as substrate preincubated for 2 hrs followed by ATP addition and measured every 2 mins for […] by spectrophotometric analysis"}, "BaF3 [19]": {"system": "BaF3", "assay": "Antitumor activity against mouse BaF3 cells harbouring BCR-ABL1 T315I mutant xenografted in Balb/c mouse model assessed as prolongation of animal survival at 100 mg/kg, po administered twice daily for 21 days", "assay_type": "functional, organism-based", "details": "time 21.0 day"}}, "note": "The source made the active and inactive calls. The rule behind the calls is not given here.", "data": [{"smiles": "Cc1cn(-c2cc(NC(=O)c3ccc(C)c(Nc4nccc(-c5cccnc5)n4)c3)cc(C(F)(F)F)c2)cn1", "note": "[NILOTINIB]", "values": [{"measurement": "IC50", "setting": "Crk-like protein", "value": "> 5000", "unit": "nM"}, {"measurement": "IC50", "setting": "BaF3 [1]", "value": 9500, "unit": "nM"}, {"measurement": "IC50", "setting": "BaF3 [2]", "value": 95, "unit": "nM"}]}, {"smiles": "Cc1cc(Nc2cc(N3CCN(C)CC3)nc(Sc3ccc(NC(=O)C4CC4)cc3)n2)n[nH]1", "note": "[TOZASERTIB]", "values": [{"measurement": "IC50", "setting": "BaF3 [3]", "value": 104, "unit": "nM"}, {"measurement": "IC50", "setting": "BaF3 [4]", "value": 110, "unit": "nM"}, {"measurement": "IC50", "setting": "BaF3 [5]", "value": 180, "unit": "nM"}, {"measurement": "IC50", "setting": "BaF3 [6]", "value": 130, "unit": "nM"}, {"measurement": "IC50", "setting": "BaF3 [7]", "value": 80, "unit": "nM"}, {"measurement": "IC50", "setting": "BaF3 [8]", "value": 190, "unit": "nM"}, {"measurement": "IC50", "setting": "BaF3 [9]", "value": 84, "unit": "nM"}, {"measurement": "IC50", "setting": "BaF3 [2]", "value": 190, "unit": "nM"}, {"measurement": "IC50", "setting": "BaF3 [10]", "value": 200, "unit": "nM"}, {"measurement": "IC50", "setting": "BaF3 [11]", "value": 88, "unit": "nM"}, {"measurement": "IC50", "setting": "BaF3 [12]", "value": 74, "unit": "nM"}, {"measurement": "IC50", "setting": "BaF3 [13]", "value": 84, "unit": "nM"}, {"measurement": "IC50", "setting": "BaF3 [14]", "value": 65, "unit": "nM"}, {"measurement": "IC50", "setting": "BaF3 [15]", "value": 130, "unit": "nM"}, {"measurement": "IC50", "setting": "BaF3 [16]", "value": 160, "unit": "nM"}]}, {"smiles": "CC(C)(C)c1cc(NC(=O)Nc2cccc(Cl)c2Cl)n(-c2ccc3c(c2)C[C@@H](C(=O)O)NC3)n1", "values": [{"measurement": "IC50", "setting": "[17]", "value": 57, "unit": "nM"}, {"measurement": "IC50", "setting": "[18]", "value": 773, "unit": "nM"}]}, {"smiles": "Cc1nc(Nc2ncc(C(=O)Nc3c(C)cccc3Cl)s2)cc(N2CCN(CCO)CC2)n1", "note": "[DASATINIB ANHYDROUS]", "values": [{"measurement": "IC50", "setting": "Crk-like protein", "value": "> 5000", "unit": "nM"}, {"measurement": "IC50", "setting": "BaF3 [1]", "value": 3800, "unit": "nM"}, {"measurement": "IC50", "setting": "BaF3 [3]", "value": 0.4, "unit": "nM"}, {"measurement": "IC50", "setting": "BaF3 [4]", "value": 7.3, "unit": "nM"}, {"measurement": "IC50", "setting": "BaF3 [5]", "value": 2.8, "unit": "nM"}, {"measurement": "IC50", "setting": "BaF3 [6]", "value": 0.3, "unit": "nM"}, {"measurement": "IC50", "setting": "BaF3 [7]", "value": 2, "unit": "nM"}, {"measurement": "IC50", "setting": "BaF3 [8]", "value": 1, "unit": "nM"}, {"measurement": "IC50", "setting": "BaF3 [9]", "value": 8, "unit": "nM"}, {"measurement": "IC50", "setting": "BaF3 [2]", "value": 2, "unit": "nM"}, {"measurement": "IC50", "setting": "BaF3 [10]", "value": 8, "unit": "nM"}, {"measurement": "IC50", "setting": "BaF3 [11]", "value": 65, "unit": "nM"}, {"measurement": "IC50", "setting": "BaF3 [13]", "value": 2.3, "unit": "nM"}, {"measurement": "IC50", "setting": "BaF3 [14]", "value": 1.1, "unit": "nM"}, {"measurement": "IC50", "setting": "BaF3 [15]", "value": 2.7, "unit": "nM"}, {"measurement": "IC50", "setting": "BaF3 [16]", "value": 1.2, "unit": "nM"}]}, {"smiles": "Cc1ccc(NC(=O)c2ccc(CN3CCN(C)CC3)cc2)cc1Nc1nccc(-c2cccnc2)n1", "note": "[IMATINIB]", "values": [{"measurement": "Activity", "setting": "BaF3 [19]", "value": "inactive"}]}, {"smiles": "CC(C)(C)c1cc(NC(=O)Nc2cccc(Cl)c2Cl)n(-c2ccc3ncccc3c2)n1", "values": [{"measurement": "IC50", "setting": "[18]", "value": 711, "unit": "nM"}]}, {"smiles": "CNC(=O)c1cc(Oc2ccc(NC(=O)Nc3cc(C(C)(C)C)nn3-c3ccc4c(c3)CCNC4)c(F)c2)ccn1", "values": [{"measurement": "IC50", "setting": "[17]", "value": 9, "unit": "nM"}, {"measurement": "IC50", "setting": "[18]", "value": 17, "unit": "nM"}]}, {"smiles": "CNC(=O)c1cc(Oc2ccc(NC(=O)Nc3cc(C(C)(C)C)nn3C)c(F)c2)ccn1", "values": [{"measurement": "IC50", "setting": "[17]", "value": 88, "unit": "nM"}, {"measurement": "IC50", "setting": "[18]", "value": 80, "unit": "nM"}]}]}
